Test results as given in patent publication US8496928B2, “Method for preventing and treating cardiovascular diseases with BRCA1” (priority 2008, dated 2013).

What was measured:
Type in all cases: cell-based, human
[1] = tested on: VCAM1, ICAM1 and E-selectin; experiment: VCAM1, ICAM1 and E-selectin expression in HUVECs, real-time PCR and western blot; settings: ad-null treated HUVECs, TNFα 20 ng/ml 24 hours
Experimental: (§1) In FIG. 24A ad-null or ad-BRCA1 infected cells were trypsinized and seeded in the presence and absence of TNFα (20 ng/ml) on coated inserts and a colorimetric assay was performed after 24 hours. Migration was calculated as a percentage of ad-null controls. (n=4, **p<0.01). In FIG. 24B, ad-null or ad-BRCA1 infected HUVECs were seeded onto matrigel in the presence or absence of TNFα (20 ng/ml). Images were taken 5 hours after seeding (original magnification 20×). In FIG. 24C data was semi-quantitatively analyzed by counting tubular structures in four fields per group. Data is presented as mean±SD (n=3 in triplicate, *p<0.05, **p<0.01). HUVECs infected with ad-null or ad-BRCA1 were treated for 24 hours with TNFα (20 ng/ml). VCAM1 (FIG. 24D, FIG. 24E), ICAM1 (FIG. 24F, FIG. 24G) and E-selectin (FIG. 24H, FIG. 24I) protein and transcript expression were determined in cell extracts via western blots and real-time PCR, respectively. GAPDH was used as a loading control for western blots and as a housekeeping gene for real-time PCR. Data are expressed as mean±SD (n=3, **p<0.01).
(§2) Western blot analysis was performed according to standard procedures. Proteins from whole cell lysates of HUVECs were resolved on SDS-polyacrylamide gels and transferred to nitrocellulose membranes (Bio-Rad). Membranes were probed with primary antibodies from Santa Cruz (BRCA1), Cell Signaling (p53, p21, Ser1177-phospho-eNOS, Akt, Ser473-phospho-Akt, cleaved caspase-3), Chemicon (GADD45a, GAPDH) and BD (eNOS). Immunoblots were incubated with the appropriate horseradish peroxidase-associated secondary antibodies before signals were visualized by chemiluminescence via the ECL detection system (GE Healthcare).
(§3) Total RNA extracted from HUVECs were reverse transcribed for quantitative assessment of VCAM1, ICAM1, E-selectin and VEGFa expressions by real-time PCR using the primer pairs listed in Table 4.
PCR reactions were performed on the ABI PRISM 7900HT system (Applied Biosystems) with GAPDH acting as the housekeeping control.

eNOS, Akt, VEGFa = experiment: eNOS/phospho-eNOS, Akt/phospho-Akt and VEGFa expression in HUVECs; settings: TNFα treatment
Experimental: FIGS. 28A through 28E show eNOS/phospho-eNOS, Akt/phospho-Akt and VEGFa protein and RNA expression. Total protein and RNA were extracted from ad-null or ad-BRCA1 infected HUVECs treated thereafter with TNFα for 24 hours. As shown in FIGS. 28A and 28C, TNFα markedly elevated eNOS protein levels in BRCA1-overexpressing cells. […] Data are presented as mean±SEM of three independent experiments (*p<0.05, **p<0.01).
BRCA1 also promoted eNOS, phospho-eNOS, phospho-Akt and VEGFa expression. Since eNOS is essential for endothelial function, the potential regulation of endothelial nitric oxide synthase (eNOS) expression and phosphorylation by BRCA1 was examined via western blot analysis.
as §2, with “Immunoblots were incubated with the appropriate horseradish peroxidase-associated secondary antibodies before signals were visualized by chemiluminescence via the ECL detection system (GE Healthcare).” left out
as §3

HUVECs = experiment: HUVEC migration assay; settings: TNFα 20 ng/ml
Experimental: as §1, with “GAPDH was used as a loading control for western blots and as a housekeeping gene for real-time PCR.” left out
The migratory function of HUVECs was determined with the CytoSelect™ 24-Well Cell Migration Fluorometric Assay (Cell Biolabs). […] Following 12 hours at 37° C., migratory cells were dissociated from the underside of the insert membrane, lysed and stained with the Lysis Buffer/CyQuant® GR dye solution before being fluorescently quantified. […]

TNFα
E-selectin transcript upregulation [1]: 200 times | ICAM1 transcript upregulation [1]: 400 times | VCAM1 transcript upregulation [1]: 1500 times | eNOS protein levels (eNOS, Akt, VEGFa): significant reduction | migratory capacity of HUVECs (HUVECs): significantly hampered
